Columns and labels:
[1] = molecular target: T1, Endothelin-1 receptor (Sus scrofa) (UniProt Q29010); assay: (§1) Inhibition of endothelin (ET-A) binding to porcine heart membranes; set-up: concentration or dose not given beside the values; settings: Membrane, concentration not given here
T1 sequence (whole entry): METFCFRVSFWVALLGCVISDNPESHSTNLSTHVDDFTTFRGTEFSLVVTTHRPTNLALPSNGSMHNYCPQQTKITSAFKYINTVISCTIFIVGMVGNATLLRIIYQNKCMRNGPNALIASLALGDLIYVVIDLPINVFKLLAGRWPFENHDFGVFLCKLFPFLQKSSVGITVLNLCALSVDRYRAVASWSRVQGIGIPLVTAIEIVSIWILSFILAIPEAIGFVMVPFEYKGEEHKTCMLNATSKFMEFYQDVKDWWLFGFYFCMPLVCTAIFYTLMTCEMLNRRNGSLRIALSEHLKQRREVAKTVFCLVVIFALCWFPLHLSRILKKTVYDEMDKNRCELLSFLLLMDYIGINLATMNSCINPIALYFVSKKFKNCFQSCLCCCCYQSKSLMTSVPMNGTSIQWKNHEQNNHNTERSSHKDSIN

[2] = molecular target: T2, Endothelin-1 receptor (Sus scrofa, UniProt Q29010); assay: as §1; set-up: species or system Membrane
T2 sequence (Q29010 whole entry): T1 sequence (whole entry)

[3] = molecular target: T1, Endothelin-1 receptor (Sus scrofa); assay: as §1; set-up: concentration or dose not given beside the values; settings: Membrane, concentration not given here; remark: listed apart in the source
[4] = molecular target: T1, Endothelin-1 receptor (Sus scrofa); assay: Antagonist activity against ET-A from porcine heart membranes; assay type: functional, tissue-based; settings: concentration not given here

| SMILES | inhibition [1] [%] | IC50 [2] [nM] | inhibition [3] [%] | inhibition [4] [%] |
| --- | --- | --- | --- | --- |
| CC(=O)N[C@@H](C(=O)N[C@@H](CC(C)C)C(=O)N[C@@H](CO)C(=O)NCC(=O)N[C@H](C(=O)N[C@@H](Cc1c[nH]c2ccccc12)C(=O)O)C(C)C)C1c2ccccc2CCc2ccccc21 | 65 | – | – | – |
| CC[C@H](C)[C@H](NC(=O)CNC(=O)[C@H](CCC(=O)O)NC(=O)[C@H](CC(C)C)NC(=O)[C@H](NC(C)=O)C1c2ccccc2CCc2ccccc21)C(=O)N[C@@H](Cc1c[nH]c2ccccc12)C(=O)O | 88 | 48 | – | – |
| CC[C@H](C)[C@H](NC(=O)CNC(=O)[C@H](CO)NC(=O)[C@H](CC(C)C)NC(=O)[C@H](NC(C)=O)C1c2ccccc2CCc2ccccc21)C(=O)N[C@@H](Cc1c[nH]c2ccccc12)C(=O)O | – | 380 | – | – |
| CC[C@@H](C)[C@H](NC(=O)[C@H](CC(C)C)NC(=O)[C@H](NC(C)=O)C1c2ccccc2CCc2ccccc21)C(=O)NCC(=O)N[C@H](C(=O)N[C@@H](Cc1c[nH]c2ccccc12)C(=O)O)[C@@H](C)CC | 22 | – | – | – |
| CC[C@H](C)[C@H](NC(=O)[C@H](CCSC)NC(=O)[C@H](CC(=O)O)NC(=O)[C@H](CC(C)C)NC(=O)[C@H](NC(C)=O)C1c2ccccc2CCc2ccccc21)C(=O)N[C@@H](Cc1c[nH]c2ccccc12)C(=O)O | – | 40 | 26 | – |
| CC[C@H](C)[C@H](NC(=O)CNC(=O)[C@H](C)NC(=O)[C@H](CC(C)C)NC(=O)[C@H](NC(C)=O)C1c2ccccc2CCc2ccccc21)C(=O)N[C@@H](Cc1c[nH]c2ccccc12)C(=O)O | 62 | – | – | – |
| CC[C@H](C)[C@H](NC(=O)[C@H](CC(N)=O)NC(=O)[C@H](CC(=O)O)NC(=O)[C@H](CC(C)C)NC(=O)[C@H](NC(C)=O)C1c2ccccc2CCc2ccccc21)C(=O)N[C@@H](Cc1c[nH]c2ccccc12)C(=O)O | – | 40 | 41 | – |
| CC[C@H](C)[C@H](NC(=O)CNC(=O)[C@H](CCSC)NC(=O)[C@H](CC(C)C)NC(=O)[C@H](NC(C)=O)C1c2ccccc2CCc2ccccc21)C(=O)N[C@@H](Cc1c[nH]c2ccccc12)C(=O)O | 61 | – | – | – |
| CC[C@H](C)[C@H](NC(=O)CNC(=O)[C@@H]1CCCN1C(=O)[C@H](CC(C)C)NC(=O)[C@H](NC(C)=O)C1c2ccccc2CCc2ccccc21)C(=O)N[C@@H](Cc1c[nH]c2ccccc12)C(=O)O | 7 | – | – | – |
| CC[C@H](C)[C@H](NC(=O)[C@@H](NC(=O)[C@H](CC(=O)O)NC(=O)[C@H](CCC(N)=O)NC(=O)[C@H](NC(C)=O)C1c2ccccc2CCc2ccccc21)C1CCCCC1)C(=O)N[C@@H](Cc1c[nH]c2ccccc12)C(=O)O | – | – | – | 49 |
| CC[C@H](C)[C@H](NC(=O)CNC(=O)[C@H](CCC(N)=O)NC(=O)[C@H](CC(C)C)NC(=O)[C@H](NC(C)=O)C1c2ccccc2CCc2ccccc21)C(=O)N[C@@H](Cc1c[nH]c2ccccc12)C(=O)O | 66 | 180 | – | – |
| CC[C@H](C)[C@H](NC(=O)CNC(=O)[C@H](CCCN=C(N)N)NC(=O)[C@H](CC(C)C)NC(=O)[C@H](NC(C)=O)C1c2ccccc2CCc2ccccc21)C(=O)N[C@@H](Cc1c[nH]c2ccccc12)C(=O)O | 27 | – | – | – |
| CC[C@H](C)[C@H](NC(=O)[C@H](C)NC(=O)[C@H](CC(=O)O)NC(=O)[C@H](CC(C)C)NC(=O)[C@H](NC(C)=O)C1c2ccccc2CCc2ccccc21)C(=O)N[C@@H](Cc1c[nH]c2ccccc12)C(=O)O | – | 30 | 47 | – |
| CC[C@H](C)[C@H](NC(=O)[C@@H](NC(=O)[C@H](CC(=O)O)NC(=O)[C@H](CC(C)C)NC(=O)[C@H](NC(C)=O)C1c2ccccc2CCc2ccccc21)C(C)C)C(=O)N[C@@H](Cc1c[nH]c2ccccc12)C(=O)O | – | 5 | 70 | – |
| CC[C@H](C)[C@H](NC(=O)CNC(=O)[C@H](CC(=O)O)NC(=O)[C@H](CC(C)C)NC(=O)[C@H](NC(C)=O)C1c2ccccc2CCc2ccccc21)C(=O)N[C@@H](Cc1c[nH]c2ccccc12)C(=O)O | 93 | 18 | 41 | – |
| CC[C@H](C)[C@H](NC(=O)CNC(=O)CNC(=O)[C@H](CC(C)C)NC(=O)[C@H](NC(C)=O)C1c2ccccc2CCc2ccccc21)C(=O)N[C@@H](Cc1c[nH]c2ccccc12)C(=O)O | 41 | 150 | – | – |
| CC[C@H](C)[C@H](NC(=O)CNC(=O)[C@@H](NC(=O)[C@H](CC(C)C)NC(=O)[C@H](NC(C)=O)C1c2ccccc2CCc2ccccc21)[C@@H](C)O)C(=O)N[C@@H](Cc1c[nH]c2ccccc12)C(=O)O | – | 350 | – | – |
| CC[C@H](C)[C@H](NC(=O)[C@@H](NC(=O)[C@H](CC(=O)O)NC(=O)[C@H](CC(C)C)NC(=O)[C@H](NC(C)=O)C1c2ccccc2CCc2ccccc21)C1CCCCC1)C(=O)N[C@@H](Cc1c[nH]c2ccccc12)C(=O)O | – | – | – | 47 |
| CC[C@H](C)[C@H](NC(=O)CNC(=O)[C@H](CC(N)=O)NC(=O)[C@H](CC(C)C)NC(=O)[C@H](NC(C)=O)C1c2ccccc2CCc2ccccc21)C(=O)N[C@@H](Cc1c[nH]c2ccccc12)C(=O)O | 74 | 120 | – | – |
| CC[C@H](C)[C@H](NC(=O)CNC(=O)[C@H](CCCCN)NC(=O)[C@H](CC(C)C)NC(=O)[C@H](NC(C)=O)C1c2ccccc2CCc2ccccc21)C(=O)N[C@@H](Cc1c[nH]c2ccccc12)C(=O)O | 16 | – | – | – |
| CC[C@H](C)[C@H](NC(=O)CNC(=O)[C@H](CC(C)C)NC(=O)[C@H](CC(C)C)NC(=O)[C@H](NC(C)=O)C1c2ccccc2CCc2ccccc21)C(=O)N[C@@H](Cc1c[nH]c2ccccc12)C(=O)O | 34 | – | – | – |
| CC[C@H](C)[C@H](NC(=O)[C@@H](NC(=O)[C@H](CC(=O)O)NC(=O)[C@H](CC(C)C)NC(=O)[C@H](NC(C)=O)C1c2ccccc2CCc2ccccc21)[C@H](C)O)C(=O)N[C@@H](Cc1c[nH]c2ccccc12)C(=O)O | – | – | 12 | – |
| CC[C@H](C)[C@H](NC(=O)CNC(=O)[C@H](Cc1ccccc1)NC(=O)[C@H](CC(C)C)NC(=O)[C@H](NC(C)=O)C1c2ccccc2CCc2ccccc21)C(=O)N[C@@H](Cc1c[nH]c2ccccc12)C(=O)O | 42 | – | – | – |
| CC[C@H](C)[C@H](NC(=O)CNC(=O)[C@H](Cc1c[nH]cn1)NC(=O)[C@H](CC(C)C)NC(=O)[C@H](NC(C)=O)C1c2ccccc2CCc2ccccc21)C(=O)N[C@@H](Cc1c[nH]c2ccccc12)C(=O)O | 56 | – | – | – |

From ChEMBL document CHEMBL1151010, “A case study of combinatorial libraries: Endothelin receptor antagonist hexapeptides” (Bioorg Med Chem Lett, 1995)
